One assay relates to HBV (extracellular HBsAg) in primary human hepatocytes. Nature of the assay: Cryopreserved Primary Human Hepatocytes (PHH) HBV infection assay. As to conditions: Hepatitis B virus, Hepatocyte, 216 h; extracellular HBsAg (CLIA), HBV-infected cryopreserved PHH, 9 days post-compound treatment. It counts as cell-based. As to the method:
This assay is used to confirm the anti-HBV effect of the compounds in HBV PHH infection assay. Cryopreserved PHH (BioreclamationIVT, Lot YJM) was thawed at 37° C. and gently transferred into pre-warmed InVitroGRO HT medium (BioreclamationIVT, Cat. S03317).
The mixture was centrifuged at 70 relative centrifugal force (RCF) for 3 mins at RT, and the supernatant was discarded. Pre-warmed InVitroGRO CP medium (BioreclamationIVT, Cat #S03316) was added to the cell pellet to gently re-suspend cells. The cells were seeded at the density of 5.8×10^4 cells per well to collagen I coated 96-well plate (Gibco, Cat. A1142803) with the InVitroGRO CP medium. All plates were incubated at 37° C. with 5% CO2 and 85% humidity.
At 20 hours after plating, the medium was changed to PHH culture medium (Dulbecco's Modified Eagle Medium (DMEM)/F12 (1:1) (Gibco, Cat. 11320-033), 10% fetal bovine serum (Gibco Cat. 10099141), 100 U/mL penicillin, 100 μg/mL streptomycin (Gibco, Cat. 151401-122), […] (Invitrogen Cat. PHG0311L), 20 ng/mL dexamethasone (Sigma, Cat. D4902) and 250 ng/mL human recombinant insulin (Gibco, Cat. 12585-014)). And the cells were incubated at 37° C. with 5% CO2 and 85% humidity for 4 hours. The medium was then changed to pre-warmed PHH culture medium containing 4% polyethylene glycol (PEG) MW8000 (Sigma, Cat. P1458-50ML) and 1% DMSO (Sigma, Cat. D2650). 5.8×10^6 genomic equivalents of HBV were added into the medium.
At 24 hours post-infection, the cells were gently washed with PBS and refreshed with PHH culture medium supplemented with 1% DMSO, and 0.25 mg/mL Matrix gel (Corning, Cat. 356237) at 200 μL per well. All plates were immediately placed in at 37° C. CO2 incubator. 24 hours later, serial dilutions of compounds made with DMSO were further diluted with the same culture medium (PHH culture medium supplemented with 1% DMSO and 0.25 mg/mL Matrix gel as described above) before they were added to the cells to reach desired final compound concentrations and 1% DMSO concentration. The medium containing the compounds were refreshed every three days.
At 9 days post-compound treatment, extracellular HBsAg level were measured with Chemiluminescence Immuno Assay (CLIA) kit (Autobio, HBsAg Quantitative CLIA). Extracellular HBV DNA was extracted by MagNA Pure 96 system (Roche) and then determined by quantitative PCR with the following primers and probe: […]
HBsAg IC50 and HBV DNA IC50 values were derived from the dose-response curve using 4 parameter logistic curve fit method.
`O=C(O)C1CC(OCCOc2ccc3c(c2)CCN(c2cc(=O)c4cccc(Cl)c4o2)C3)C1` (stereo not drawn) [Example 36, 3-[2-[[2-(8-chloro-4-oxo-chromen-2-yl)-3,4-dihydro-1H-isoquinolin-6-yl]oxy]ethoxy]cyclobutanecarboxylic Acid] returned an IC50 of 0.61 µM.
Same read-out and setting: the same measure for `O=C(O)C1CC(OCCOc2ccc3c(c2)CN(c2cc(=O)c4cccc(Cl)c4o2)C3)C1` (stereo not drawn) [Example 37, 3-[2-[2-(8-chloro-4-oxo-chromen-2-yl)isoindolin-5-yl]oxyethoxy]cyclobutanecarboxylic Acid]: 1.06 µM.
The same measure, in the same setting: the figure for `Cc1cc(Br)cnc1NC(=O)c1cc(=O)c2cccc(Cl)c2o1` [Example 10, N-(5-bromo-3-methylpyridin-2-yl)-8-chloro-4-oxo-chromene-2-carboxamide] is 24.3 µM; for `O=C(Nc1ccc(OCCOC2CC(C(=O)O)C2)cc1C(F)(F)F)c1cc(=O)c2cccc(Cl)c2o1` (stereo not drawn) [Example 5, 3-(2-(4-(8-chloro-4-oxo-chromene-2-carboxamido)-3-(trifluoromethyl)phenoxy)ethoxy)cyclobutanecarboxylic Acid] it is 7.42 µM; for `O=C(Nc1nnc(C(F)(F)F)s1)c1cc(=O)c2cccc(Cl)c2o1` [Example 6, 8-chloro-4-oxo-N-(5-(trifluoromethyl)-1,3,4-thiadiazol-2-yl)-chromene-2-carboxamide] it is 9.53 µM.
As for `O=C(Nc1ccc(OCCOC2CC(C(=O)O)C2)cc1F)c1cc(=O)c2cccc(Cl)c2o1` (stereo not drawn) [Example 1, 3-(2-(4-(8-chloro-4-oxo-chromene-2-carboxamido)-3-fluorophenoxy)ethoxy)cyclobutanecarboxylic Acid], the IC50 worked out at 2.86 µM. Compared with the last compound, the IC50 is about 3.3-fold lower.
Compound `O=C(NCc1ccc(Cl)cc1Cl)c1cc(=O)c2cccc(Cl)c2o1` [Example 9, 8-chloro-N-(2,4-dichlorobenzyl)-4-oxo-chromene-2-carboxamide] gave an IC50 of 14.1 µM.
On to `Cc1cc(C(=O)O)ccc1NC(=O)c1cc(=O)c2cccc(Cl)c2o1` [Example 18, 4-(8-chloro-4-oxo-chromene-2-carboxamido)-3-methylbenzoic Acid], for which the IC50 is 43 µM.
On the same count and under the same terms, the same measure for `O=C(c1cc(=O)c2cccc(Cl)c2o1)N1CCc2ccc(Cl)cc2C1` [Example 16, 8-Chloro-2-(7-chloro-3,4-dihydro-1H-isoquinoline-2-carbonyl)chromen-4-one]: 40.3 µM; for `O=C(O)COCCOC1CC2CCC(C1)N2c1cc(=O)c2cccc(Cl)c2o1` (stereo not drawn) [Example 39, 2-(2-((8-(8-chloro-4-oxo-chromen-2-yl)-8-azabicyclo[3.2.1]octan-3-yl)oxy)ethoxy)acetic Acid]: 38.5 µM.
`O=C(O)c1cccc(CN2CCN(c3cc(=O)c4cccc(Cl)c4o3)CC2)c1` [Example 38, 3-((4-(8-chloro-4-oxo-chromen-2-yl)piperazin-1-yl)methyl)benzoic Acid] returned an IC50 of 38.5 µM.
In turn, `Cc1ccccc1NC(=O)c1cc(=O)c2cccc(Cl)c2o1` [Example 15, 8-chloro-4-oxo-N-(o-tolyl)-chromene-2-carboxamide] had an IC50 of 37.6 µM.
`O=C(Nc1ccc(Cl)cc1C(F)(F)F)c1cc(=O)c2cccc(Cl)c2o1` [Example 12, 8-chloro-N-(4-chloro-2-(trifluoromethyl)phenyl)-4-oxo-chromene-2-carboxamide] had a half-inhibitory concentration (IC50) of 34.2 µM. This IC50 and that of the compound before are within 1.5-fold of each other.
Same read-out and setting: the same measure for `Cc1cc(OCCOC2CC(C(=O)O)C2)ccc1NC(=O)c1cc(=O)c2cccc(Cl)c2o1` (stereo not drawn) [Example 2, 3-(2-(4-(8-chloro-4-oxo-chromene-2-carboxamido)-3-methylphenoxy)ethoxy)cyclobutanecarboxylic Acid]: 4.36 µM; for `CC1c2ccc(OCCOC3CC(C(=O)O)C3)cc2CCN1c1cc(=O)c2cccc(Cl)c2o1` (stereo not drawn) [Example 40, 3-[2-[[2-(8-chloro-4-oxo-chromen-2-yl)-1-methyl-3,4-dihydro-1H-isoquinolin-6-yl]oxy]ethoxy]cyclobutanecarboxylic Acid]: 34.6 µM.

The test system of a further assay is HBV cccDNA (HBeAg level) in HepDES19 cells. Put plainly: Engineered HepDES19 primary screen assay (HBeAg as surrogate marker for cccDNA). It counts as cell-based. The conditions noted are these: Hepatitis B virus, HepDES19, 120 h. The source says:
The assay was employed to screen for novel cccDNA inhibitors. HepDES19 is a cccDNA-producing cell line. In this cell line, HBeAg in the cell culture supernatant as surrogate marker, as HBeAg production depends on cccDNA level and activity. HepDES19 is an engineered cell line which contains a 1.1 unit length HBV genome, and pgRNA transcription from the transgene is controlled by Tetracycline (Tet). In the absence of Tet, pgRNA transcription will be induced, but HBV e antigen (HBeAg) could not be produced from this pgRNA due to very short leader sequence before the HBeAg start codon and the start codon is disrupted. Only after cccDNA is formed, the missing leader sequence and start codon mutation would be restored from the 3′-terminal redundancy of pgRNA, and then HBeAg could be synthesized. Therefore, HBeAg could be used as a surrogate marker for cccDNA (Zhou, T. et al., Antiviral Res. (2006), 72(2), 116-124; Guo, H. et al., J. Virol. (2007), 81(22), 12472-12484).
HepDES19 cells were seeded at 2×10^6 cells per T150 flask and cultured with the culture medium (Dulbecco's Modified Eagle Medium: Nutrient Mixture F-12 [DMEM-F12, Gibco Cat. 11320-82], 10% Fetal Bovine Serum [FBS, Clontech Cat. 631101], 0.1 mM Non-Essential Amino Acids Solution [NEAA, Gibco Cat. 11140-050], 50 μg/mL Penicillin-Streptomycin [PS, Invitrogen Cat. 15140-163], 500 μg/mL Geneticin [G418, Invitrogen Cat. 10131-027]) containing 3 μg/mL Tet (Sigma, Cat. 87128) for 5 days. Cells were then seeded at 4×10^6 cells per T150 in the same culture medium as described above in the absence of Tet for 8 days. Cells were then harvested and frozen at density of 2×10^6 cells per mL. For compound testing, the frozen cells were thawed and seeded into 96-well plates at a density of 6×10^4 cells per well. At 24 hours after seeding, half log serial dilutions of compounds made with Dimethyl sulfoxide (DMSO, Sigma, Cat. D2650) were further diluted with the same culture medium as described above before they were added to the cells to reach desired final compound concentrations and 1% DMSO concentration. Plates were then incubated at 37° C. for another 5 days before measurement of HBeAg level and cell viability. Intracellular HBeAg level were measured with enzyme-linked immunosorbent assay (ELISA) kit (Shanghai Kehua Diagnostic Medical Products Co., Ltd). Cell viability was assessed using Cell Counting Kit-8 (Donjindo, Cat. CK04-20). IC50 values were derived from the dose-response curve using 4 parameter logistic curve fit method.
The compounds of the present invention were tested for their capacity to inhibit extracellular HBeAg level as described herein.
For the compound `O=c1cc(N2CCC(c3ccccc3)CC2)oc2c(Cl)cc(F)cc12` [Example 49, 8-chloro-6-fluoro-2-(4-phenylpiperidin-1-yl)-chromen-4-one], inhibition was half-maximal at 12.4 µM (IC50). This lies in the double-digit micromolar range.
As for `CCOC(=O)c1nnc(NC(=O)c2cc(=O)c3cccc(Cl)c3o2)s1` [Example 35, Ethyl 5-(8-chloro-4-oxo-chromene-2-carboxamido)-1,3,4-thiadiazole-2-carboxylate], it took 44.6 µM to reach half-maximal inhibition (IC50).
Compound `Cc1cc(NC(=O)c2cc(=O)c3cccc(Cl)c3o2)ncc1Br` [Example 23, N-(5-bromo-4-methylpyridin-2-yl)-8-chloro-4-oxo-chromene-2-carboxamide] returned an IC50 of 11.9 µM. Against the preceding compound, the IC50 is about 3.7-fold lower.
The compound `O=C(O)COc1cc(Cl)ccc1NC(=O)c1cc(=O)c2cccc(Cl)c2o1` [Example 20, 2-(5-chloro-2-(8-chloro-4-oxo-chromene-2-carboxamido)phenoxy)acetic Acid] yielded a 50% inhibitory concentration (IC50) of 50 µM. This IC50 is about 4.2-fold higher than that of the compound before.
With `COc1ccc2c(c1)CN(c1cc(=O)c3cccc(Cl)c3o1)C2=O` [Example 43, 2-(8-chloro-4-oxo-chromen-2-yl)-5-methoxyisoindolin-1-one], the IC50 is 4.78 µM.
Compound `O=C(O)C1CC(OCCOc2ccc3c(c2)CCN(c2cc(=O)c4cccc(Cl)c4o2)C3=O)C1` (stereo not drawn) [Example 58, 3-(2-((2-(8-chloro-4-oxo-chromen-2-yl)-1-oxo-1,2,3,4-tetrahydroisoquinolin-6-yl)oxy)ethoxy)cyclobutanecarboxylic Acid] displayed an IC50 of 23.4 µM.
As to `O=C(O)C1CC(OCCOc2ccc(C3CCN(c4cc(=O)c5cc(F)cc(Cl)c5o4)CC3)cc2)C1` (stereo not drawn) [Example 50, 3-(2-(4-(1-(8-chloro-6-fluoro-4-oxo-chromen-2-yl)piperidin-4-yl)phenoxy)ethoxy)cyclobutane-1-carboxylic Acid], the IC50 amounted to 14.1 µM.
Compound `CC(NC(=O)c1cc(=O)c2cccc(Cl)c2o1)c1ccc(Br)cc1` (stereo not drawn) [Example 29, N-(1-(4-bromophenyl)ethyl)-8-chloro-4-oxo-chromene-2-carboxamide] had an IC50 of 24.9 µM.
The compound `O=C(O)CCCOc1cc(Cl)ccc1NC(=O)c1cc(=O)c2cc(Cl)cc(Cl)c2o1` [Example 11, 4-(5-chloro-2-(6,8-dichloro-4-oxo-chromene-2-carboxamido)phenoxy)butanoic Acid] yielded a half-maximal inhibitory concentration (IC50) of 3.12 µM.

Source of the values: patent US11993591B2, “Chromen-4-one derivatives for the treatment and prophylaxis of hepatitis B virus disease” (Hoffmann-La Roche Inc., priority 2018, dated 2024).
